Laboratory results taken from US6300345A, “Cyanoguanidines as cell proliferation inhibitors” (Leo Pharmacuetical Products Ltd. A/S (L.o slashed.vens …, priority 1997, dated 2001).

How the values were obtained:
Type in all cases: cell-based
[1] = tested on: human small cell lung carcinoma (NYH); assay: Inhibition of tumour cell proliferation in vitro ([3H]thymidine incorporation), NYH; conditions: 24 hours
Description: (§1) The inhibition of tumour cell proliferation was studied using different types of human cancer cell lines. The cell lines under investigation were small cell lung carcinoma (NYH), non small cell lung carcinoma (NCI-H460), and breast cancer (MCF-7) using the following general procedure:
(§2) The cells were cultured in vitro for 24 hours in the presence of the compound under investigation. DNA synthesis was measured by incorporation of [3H]thymidine, and the median inhibitory concentrations (IC50) of the compounds were calculated.

[2] = tested on: human breast cancer (MCF-7); assay: Inhibition of tumour cell proliferation in vitro ([3H]thymidine incorporation), MCF-7; conditions: MCF7, MCF-7, 24 hours
Description: as §1, §2

[3] = tested on: human non small cell lung cancer (NCI-H460); assay: Inhibition of tumour cell proliferation in vitro ([3H]thymidine incorporation), NCI-H460; conditions: NCI-H460, 24 hours
Description: as §1, §2

| IC50 [1] | IC50 [2] | IC50 [3] | SMILES |
| --- | --- | --- | --- |
| 4.4 nM | 26 nM | 65 nM | N#CN=C(NCCCCCCCCCCCCNC(=NC#N)Nc1cccnc1)Nc1cccnc1 [Example No. 6, 1,12-Bis(N'-cyano-N"-3-pyridylguanidino)dodecane] |
| 0.91 nM | 6.6 nM | 65 nM | N#CN=C(NCCCCCCCCCCNC(=NC#N)Nc1ccncc1)Nc1ccncc1 [Example No. 8, 1,10-Bis(N'-cyano-N"-4-pyridylguanidino)decane] |
| 0.5 nM | 13 nM | 69 nM | N#CN=C(NCCCCCCCCCCCCNC(=NC#N)Nc1ccncc1)Nc1ccncc1 [Example No. 14, 1,12-Bis(N'-cyano-N"-4-pyridylguanidino)dodecane] |
